Results as given in patent publication US20090311237A1, “Combination therapy using a soluble hyaluronidase and a bisphosphonate” (priority 2008, published 2009).
Like-named read-outs stand apart in the source and are kept apart here.

Assay: Phase 1 Stage 1 clinical pharmacokinetics of SC ZA co-administered with rHuPH20
Assay type: in vivo, human
Settings: human, serum, sc; for AUC(0-inf): read-out: AUC (0-inf); for Tmax: read-out: Tmax; for MRT: SC […] infusion, 100 mL, 3 mL/min, 24000 Units rHuPH20, extrapolated to ∞, read-out: SC MRT
Description: A pharmacokinetic study of zoledronic acid (ZA) co-administered with rHuPH20 in human subjects was conducted. The primary objective of the study was to determine the bioavailability of zoledronic acid dosed via subcutaneous (SC) co-administration with human recombinant hyaluronidase PH20 (rHuPH20). […] The patients were administered the prescribed dosage formulations as follows: Cohorts 1-5 were administered a single subcutaneous infusion in a dosage volume of 100 ml at a rate of 3 mL/min. […] The dosing solution is administered via needle or catheter into the SC space of the left anterior thigh (midway between the anterior iliac crest and the cephalad border of the patella). For cohorts 1-5, the dosing solutions were administered by a controlled rate infusion pump at approximately 3 mL/minute. […] The dosing solutions were administered by syringe push bolus injection. […] Serum concentration of ZA was determined using a qualified LC-MS-MS assay after derivatization with diazomethane (Zhu, L S et al. (2006) Rapid Commun. […] The assay range was from 2.0 to 400 ng/mL with a lower limit of quantitation (LLOQ) at 2.0 ng/mL. […] Non-compartmental analysis was used for derivation of primary and secondary pharmacokinetic (PK) parameters. […] Summary statistics (mean, standard deviation, and median) were calculated using JMP or Microsoft Excel.

[1] = 0.0791 mg/kg, Subj 37, ZA 0.0791 mg/kg SC, inf 0.556 hr, PH20 24000 U
[2] = 0.0794 mg/kg, Subj 74, ZA 0.0794 mg/kg SC, inf […], PH20 6000 U
[3] = 0.082 mg/kg, Subj 63, ZA 0.0820 mg/kg SC, inf […], PH20 6000 U
[4] = 0.0877 mg/kg, Subj 46, ZA 0.0877 mg/kg SC, inf 0.276 hr, PH20 12000 U

O=P(O)(O)C(O)(Cn1ccnc1)P(=O)(O)O [ZA, 1-hydroxy-2-(1H-imidazol-1-yl)ethylidene-1,1-bisphosphonic acid]
AUC(0-t) (0.0791 mg/kg, AUC (0-12 h), Subj 37, ZA 0.0791 mg/kg SC, inf 0.556 hr, PH20 24000 U): 499 ng·h/mL | AUC(0-t) (0.0791 mg/kg, AUC (0-24 h), Subj 37, ZA 0.0791 mg/kg SC, inf 0.556 hr, PH20 24000 U): 536 ng·h/mL | AUC(0-t) (0.0791 mg/kg, AUC (0-48 h), Subj 37, ZA 0.0791 mg/kg SC, inf 0.556 hr, PH20 24000 U): 578 ng·h/mL | Cmax [1]: 131 ng/mL | AUC(0-inf) [1]: 620 ng·h/mL | Tmax [1]: 0.81 h | AUC(0-t) (0.0794 mg/kg, AUC (0-12 h), Subj 74, ZA 0.0794 mg/kg SC, inf […], PH20 6000 U): 426 ng·h/mL | AUC(0-t) (0.0794 mg/kg, AUC (0-24 h), Subj 74, ZA 0.0794 mg/kg SC, inf […], PH20 6000 U): 467 ng·h/mL | AUC(0-t) (0.0794 mg/kg, AUC (0-48 h), Subj 74, ZA 0.0794 mg/kg SC, inf […], PH20 6000 U): 509 ng·h/mL | Cmax [2]: 120 ng/mL | AUC(0-inf) [2]: 555 ng·h/mL | Tmax [2]: 0.75 h | AUC(0-t) (0.082 mg/kg, AUC (0-12 h), Subj 63, ZA 0.0820 mg/kg SC, inf […], PH20 6000 U): 497 ng·h/mL | AUC(0-t) (0.082 mg/kg, AUC (0-24 h), Subj 63, ZA 0.0820 mg/kg SC, inf […], PH20 6000 U): 559 ng·h/mL | AUC(0-t) (0.082 mg/kg, AUC (0-48 h), Subj 63, ZA 0.0820 mg/kg SC, inf […], PH20 6000 U): 613 ng·h/mL | Cmax [3]: 167 ng/mL | AUC(0-inf) [3]: 662 ng·h/mL | Tmax [3]: 0.5 h | AUC(0-t) (0.0877 mg/kg, AUC (0-12 h), Subj 46, ZA 0.0877 mg/kg SC, inf 0.276 hr, PH20 12000 U): 610 ng·h/mL | AUC(0-t) (0.0877 mg/kg, AUC (0-24 h), Subj 46, ZA 0.0877 mg/kg SC, inf 0.276 hr, PH20 12000 U): 656 ng·h/mL | AUC(0-t) (0.0877 mg/kg, AUC (0-48 h), Subj 46, ZA 0.0877 mg/kg SC, inf 0.276 hr, PH20 12000 U): 706 ng·h/mL | Cmax [4]: 213 ng/mL | AUC(0-inf) [4]: 747 ng·h/mL | Tmax [4]: 0.78 h | MRT (0.5 mg, ZA 0.5 mg, individual subjects): 3.19 h | MRT (1 mg, ZA 1 mg, individual subjects): 6.93 h | MRT (2 mg, ZA 2 mg, individual subjects): 5.72 h | MRT (5 mg, ZA 5 mg, individual subjects): 10.9 h | AUC(0-t) (AUC (0-12h), ZA 0.25 mg SC + 24000 U rHuPH20, individual subjects): 29.7 ng·h/mL | AUC(0-t) (AUC (0-12h), ZA 0.25 mg SC + 24000 U rHuPH20, mean, n=3): 29.5 ng·h/mL | AUC(0-t) (AUC (0-12h), ZA 0.25 mg SC + 24000 U rHuPH20, median, n=3): 29.5 ng·h/mL | AUC(0-t) (AUC (0-12h), ZA 0.5 mg SC + 24000 U rHuPH20, individual subjects): 60.8 ng·h/mL | AUC(0-t) (AUC (0-12h), ZA 0.5 mg SC + 24000 U rHuPH20, mean, n=3): 63.2 ng·h/mL | AUC(0-t) (AUC (0-12h), ZA 0.5 mg SC + 24000 U rHuPH20, median, n=3): 62.4 ng·h/mL | AUC(0-t) (AUC (0-12h), ZA 1 mg SC + 24000 U rHuPH20, individual subjects): 103 ng·h/mL | AUC(0-t) (AUC (0-12h), ZA 1 mg SC + 24000 U rHuPH20, mean, n=3): 115 ng·h/mL | AUC(0-t) (AUC (0-12h), ZA 1 mg SC + 24000 U rHuPH20, median, n=3): 104 ng·h/mL | AUC(0-t) (AUC (0-12h), ZA 2 mg SC + 24000 U rHuPH20, individual subjects): 218 ng·h/mL | AUC(0-t) (AUC (0-12h), ZA 2 mg SC + 24000 U rHuPH20, mean, n=3): 223 ng·h/mL | AUC(0-t) (AUC (0-12h), ZA 2 mg SC + 24000 U rHuPH20, median, n=3): 218 ng·h/mL | AUC(0-t) (AUC (0-12h), ZA 5 mg SC + 24000 U rHuPH20, individual subjects): 499 ng·h/mL | AUC(0-t) (AUC (0-12h), ZA 5 mg SC + 24000 U rHuPH20, mean, n=3): 517 ng·h/mL | AUC(0-t) (AUC (0-12h), ZA 5 mg SC + 24000 U rHuPH20, median, n=3): 499 ng·h/mL | CL/F (ZA 0.25 mg SC + 24000 U rHuPH20, individual subjects): 2.47 mL/min/kg
